These results are taken from BindingDB's records for doi:10.1021/jm0009641 (University of Bristol, 2000).

SMILES strings stand for the structures.

The nature of assay [1]: Displacement of radioligand [3H]- DPDPE on Opioid receptor delta 1 in monkey brain membranes.
Assay [2] can be described thus: Displacement of radioligand [3H]- DPDPE on Opioid receptor delta 1 in monkey brain membranes range; Value ranges from (34.0-43.2).
Assay [3] is described as follows: Displacement of radioligand [3H]- U-69,593 on Opioid receptor kappa 1 in monkey brain membranes range; Value ranges from (9.7-14.2).
Assay [4] is described as follows: Displacement of radioligand [3H]- DAMGO on Opioid receptor mu 1 in monkey brain membranes range; Value ranges from (0.32-0.91).

Take `COc1ccc2c3c1O[C@H]1C(=O)CC[C@@]4(NC(=O)/C=C/c5ccc(Cl)cc5)[C@@H](C2)N(CC2CC2)CC[C@]314` [1N-[4-cyclopropylmethyl-10-methoxy-14-oxo-(13R)-12-oxa-4-azapentacyclo[9.6.1.01,13.05,17.07,18]octadeca-7,9,11(18)-trien-17-yl]-3-(4-chlorophenyl)-(E)-2-propenamide]: in assay [1], the Ki was determined as 4.5 nM.
For `O=C(/C=C/c1ccc(Cl)cc1)N[C@@]12CCC(=O)[C@@H]3Oc4c(O)ccc5c4[C@@]31CCN(CC1CC1)[C@@H]2C5` [1N-[4-cyclopropylmethyl-10-hydroxy-14-oxo-(17S)-12-oxa-4-azapentacyclo[9.6.1.01,13.05,17.07,18]octadeca-7,9,11(18)-trien-17-yl]-3-(4-chlorophenyl)-(E)-2-propenamide(Clocinnamox (C-CAM))], the Ki in assay [1] was 1.6 nM.
On to `O=C(/C=C/c1ccc(Cl)cc1)NC12CCC(=O)C3Oc4cccc5c4[C@@]31CCN(CC1CC1)C2C5` (stereo partly drawn) [1N-[4-cyclopropylmethyl-14-oxo-(13R)-12-oxa-4-azapentacyclo[9.6.1.01,13.05,17.07,18]octadeca-7,9,11(18)-trien-17-yl]-3-(4-chlorophenyl)-(E)-2-propenamide], for which the Ki in assay [2] was 37 nM; in assay [3], 12 nM; in assay [4], 0.54 nM.
